# In EP1928451B1, “METHODS FOR TREATING SUBSTANCE-RELATED DISORDERS” (SK Biopharmaceuticals Co., LTD, priority 2005, dated 2007):
# Experiments:
# [1] = test system: selectively-bred alcohol preferring (P) rats; experiment: Chronic administration: two-bottle choice alcohol intake in alcohol preferring rats; type: in vivo
# Method: (§1) A compound of the present invention was tested in ethanol preferring rats, a model for acute and chronic drug addiction in humans using an adaptation of a published method (See, Rezvani, AH et al. Alcohol & Alcoholism, Vol. 25, No. 5, pp. 573-575, 1990, Rezvani AH, et al., Alcohol and Alcoholism (Oxford), 2000, 35(1), 76-83).
# (§2) An enantiomer of Formula (Ib) was orally administered in a dose range of from about 10 to about 90 mg/kg in test and control treatment groups of 10 rats per group over a period of 14 days. Test conditions reflected approaches for evaluating patterns of drinking (e.g., single or multiple events).
# Adult male selectively-bred alcohol preferring (P) rats were used. The selectively-bred alcohol-preferring (P) rats have been characterized and have been widely used to study the effects of different compounds on voluntary alcohol intake (Rezvani et al, 1990, 1991, 1992a, 1992b, 1999, 2000, 2002; 2003; Murphy et al, 1988; Overstreet et al., 1992, 1999; Li and McBride, 1995).
# Rats were housed individually in wire mesh cages under a constant room temperature of 22 +1 °C and 12:12 light-dark cycle (8:00-20:00, dark). Animal were fed Agway Prolab Rat/Mouse/ Hamster 3000 formula and water ad libitum.
# (§3) Establishment of baseline alcohol intake: Alcohol intake was determined using a standard two-bottle choice method (as described in Murphy et al. 1988; McBride et al. 1990; Rezvani et al. 1990, 1991, 1993, 1995, 1997, Rezvani and Grady, 1994).
# Animals were first given free access to water in a graduated Richter tube for 1 day. After the first day, the animals were given access to only a solution of 10% (v/v) ethanol for 3 consecutive days. During this period animals became accustomed to drinking from Richter tubes and to the taste and pharmacological effects of alcohol. Thereafter, they were given free access to both water and a solution of 10% alcohol for at least 3 consecutive weeks and throughout of the period of study. The rats had free access to food. Water and alcohol intake was recorded at 6 and 24 hour after the treatment, food intake was measured at 24 hour. Animal body weight was measured every day.
# The effect of chronic administration of a test compound on alcohol intake and tolerance to the anti-craving effects of the test compound was tested in naïve rats treated (via gavage tube) once a day either vehicle or test compound. A test compound dose of 45 mg/Kg was selected as an effective dose for chronic administration based on the results of the acute administration study phase. Themost effective dose was then used for the chronic adminstiration phase and administered for 14 consecutive days. Alcohol and water intake was recorded 6 and 24 h after each treatment administration and food intake was recorded at 24 hr.
# The results were presented as means ±SEM (Standard Error of the Means). Alcohol intake (g/kg) was calculated by multiplying the volume of alcohol consumed in mL by 10% and 0.7893 (a factor representing ethanol density)/body weight in kg. Alcohol preference, expressed as percentage, was calculated as follows (volume of alcohol consumed (mL)/total fluid intake (mL)) x 100 (as described in Rezvani and Grady,. 1994; Rezvani et al., 1997). Statistical differences between treatment and control groups were determined by using ANOVA and Turkey Student's t test for multiple comparisons.
# [2] = test system: selectively-bred alcohol preferring (P) rats; experiment: Acute administration: two-bottle choice alcohol intake in alcohol preferring rats; type: in vivo; conditions: dose of about 45 mg/kg and up, oral
# Method: as §1, §2
# Adult male selectively-bred alcohol preferring (P) rats were used. […]
# as §3
# Animals were first given free access to water in a graduated Richter tube for 1 day. […] Water and alcohol intake was recorded at 6 and 24 hour after the treatment, food intake was measured at 24 hour. Animal body weight was measured every day. […]
# The results were presented as means ±SEM (Standard Error of the Means). […] Statistical differences between treatment and control groups were determined by using ANOVA and Turkey Student's t test for multiple comparisons.
# [3] = BL (baseline, before treatment), drug group
# [4] = Day 1, 45 mg/Kg once a day via gavage
# [5] = Day 2, 45 mg/Kg once a day via gavage
# [6] = Day 3, 45 mg/Kg once a day via gavage
# [7] = Day 4, 45 mg/Kg once a day via gavage
# [8] = Day 5, 45 mg/Kg once a day via gavage
# [9] = Day 6, 45 mg/Kg once a day via gavage
# [10] = Day 7, 45 mg/Kg once a day via gavage
# [11] = Day 8, 45 mg/Kg once a day via gavage
# [12] = Day 9, 45 mg/Kg once a day via gavage
# [13] = Day 10, 45 mg/Kg once a day via gavage
# [14] = Day 11, 45 mg/Kg once a day via gavage
# [15] = Day 12, 45 mg/Kg once a day via gavage
# [16] = Day 13, 45 mg/Kg once a day via gavage
# [17] = Day 14, 45 mg/Kg once a day via gavage
smiles,measurement,setting,value
NC(=O)OC[C@@H](O)c1ccccc1Cl [Drug],tolerance for the test compound's affect on ethanol intake,[1]; 45 mg/Kg once a day for 14 consecutive days,without developing a tolerance
same,Alcohol Intake,[1]; [3],5.30 g/kg
same,Alcohol Pref,[1]; [3],71%
same,Body Weight,[1]; [3],384 g
same,Water Intake,[1]; [3],30 g/kg
same,Alcohol Intake,[1]; [4],1.61 g/kg
same,Alcohol Pref,[1]; [4],28%
same,Body Weight,[1]; [4],418 g
same,Water Intake,[1]; [4],62 g/kg
same,Alcohol Intake,[1]; [5],1.31 g/kg
same,Alcohol Pref,[1]; [5],24%
same,Body Weight,[1]; [5],415 g
same,Water Intake,[1]; [5],60 g/kg
same,Alcohol Intake,[1]; [6],1.37 g/kg
same,Alcohol Pref,[1]; [6],24%
same,Body Weight,[1]; [6],413 g
same,Water Intake,[1]; [6],60 g/kg
same,Alcohol Intake,[1]; [7],1.03 g/kg
same,Alcohol Pref,[1]; [7],16%
same,Body Weight,[1]; [7],415 g
same,Water Intake,[1]; [7],68 g/kg
same,Alcohol Intake,[1]; [8],1.24 g/kg
same,Alcohol Pref,[1]; [8],21%
same,Body Weight,[1]; [8],419 g
same,Water Intake,[1]; [8],68 g/kg
same,Alcohol Intake,[1]; [9],1.10 g/kg
same,Alcohol Pref,[1]; [9],21%
same,Body Weight,[1]; [9],421 g
same,Water Intake,[1]; [9],61 g/kg
same,Alcohol Intake,[1]; [10],1.85 g/kg
same,Alcohol Pref,[1]; [10],34%
same,Body Weight,[1]; [10],424 g
same,Water Intake,[1]; [10],48 g/kg
same,Alcohol Intake,[1]; [11],2.21 g/kg
same,Alcohol Pref,[1]; [11],35%
same,Body Weight,[1]; [11],426 g
same,Water Intake,[1]; [11],52 g/kg
same,Alcohol Intake,[1]; [12],2.19 g/kg
same,Alcohol Pref,[1]; [12],45%
same,Body Weight,[1]; [12],429 g
same,Water Intake,[1]; [12],40 g/kg
same,Alcohol Intake,[1]; [13],3.06 g/kg
same,Alcohol Pref,[1]; [13],52%
same,Body Weight,[1]; [13],431 g
same,Water Intake,[1]; [13],44 g/kg
same,Alcohol Intake,[1]; [14],2.93 g/kg
same,Alcohol Pref,[1]; [14],57%
same,Body Weight,[1]; [14],435 g
same,Water Intake,[1]; [14],30 g/kg
same,Alcohol Intake,[1]; [15],2.67 g/kg
same,Alcohol Pref,[1]; [15],58%
same,Body Weight,[1]; [15],436 g
same,Water Intake,[1]; [15],27 g/kg
same,Alcohol Intake,[1]; [16],2.37 g/kg
same,Alcohol Pref,[1]; [16],42%
same,Body Weight,[1]; [16],431 g
same,Water Intake,[1]; [16],48 g/kg
same,Alcohol Intake,[1]; [17],2.32 g/kg
same,Alcohol Pref,[1]; [17],40%
same,Body Weight,[1]; [17],437 g
same,Water Intake,[1]; [17],54 g/kg
same,effect on alcohol intake,[2],significant effect on alcohol intake
